Experimental data: patent publication US20080194585A1, “Fungicidal Pyrazine Derivatives” (priority 2005, published 2008)
Marks after values point to notes of the source that are not given here.

How the values were obtained:
Sclerotinia sclerotiorum = test: Test C: cucumber white mold, preventive spray on cucumber seedlings; conditions: for Test C disease control rating: 200 ppm
Plasmopara viticola = test: Test D: grape downy mildew, spray after inoculation of grape seedlings; type: in vivo; conditions: 200 ppm
Source text: Upon removal, disease ratings were made. […] A dash (-) indicates no test results.

Botrytis cinerea = test: Test E: tomato botrytis, preventive spray on tomato seedlings; conditions: for Test E disease control rating: 200 ppm
Phytophthora infestans = test: whole plant or invertebrate; type: in vivo; conditions: for Test F disease control rating: 200 ppm
Pythium aphanidermatum = test: Test A: bluegrass pythium blight, preventive spray on bluegrass seedlings; conditions: for Test A disease control rating: 200 ppm
Rhizoctonia oryzae = test: Test G: turf brown patch, preventive spray on creeping bent grass seedlings; conditions: for Test G disease control rating: 200 ppm
Method: (the causal agent of turf brown patch) and incubated in a saturated atmosphere at 27° C. for 24 h, and then moved to a growth chamber at 27° C. for 5 days, after which disease ratings were made.

[1] = system: Erysiphe graminis f. sp. tritici; test: Test L: wheat powdery mildew, preventive spray on wheat seedlings; conditions: for Test L disease control rating: 200 ppm
Septoria tritici = test: Test J: wheat leaf blotch, preventive spray on wheat seedlings; type: in vivo
Source text: A dash (-) indicates no test results.

[2] = system: Colletotrichum orbiculare; test: Test B: cucumber Colletotrichum anthracnose, preventive spray on cucumber seedlings; conditions: for Test B disease control rating: 200 ppm
Septoria nodorum = test: Test H: wheat glum blotch, preventive spray on wheat seedlings; conditions: for Test H disease control rating: 200 ppm
Method: (the causal agent of wheat glum blotch) and incubated in a saturated atmosphere at 20° C. for 48 h, and then moved to a growth chamber at 22° C. for 5 days, after which disease ratings were made.

[3] = system: Puccinia recondita f. sp. tritici; test: Test K: wheat leaf rust, preventive spray on wheat seedlings; conditions: for Test K disease control rating: 200 ppm
fusarium graminearium = test: Test I: wheat head scab, preventive spray on wheat seedlings; conditions: 200 ppm; 100 = 100% disease control, 0 = no control relative to controls
Method: (the causal agent of wheat head scab) and incubated in a saturated atmosphere at 20° C. for 72 h, and then moved to a growth chamber at 22° C. for 5 days, after which disease ratings were made.

[4] = 100 = 100% disease control, 0 = no control relative to controls
[5] = 200 ppm, 100 = 100% disease control, 0 = no control relative to controls

Compound | Test C disease control rating (Sclerotinia sclerotiorum) [%] | Test D disease control rating (Plasmopara viticola) [%] | Test E disease control rating (Botrytis cinerea) [%] | Test F disease control rating (Phytophthora infestans) [%] | Test A disease control rating (Pythium aphanidermatum) [%] | Test G disease control rating (Rhizoctonia oryzae) [%] | Test L disease control rating [1] [%] | Test J disease control rating (Septoria tritici; 200 ppm) [%] | Test B disease control rating [2] [%] | Test H disease control rating (Septoria nodorum) [%] | Test D disease control rating (Plasmopara viticola; [4]) [%] | Test E disease control rating (Botrytis cinerea; [4]) [%] | Test F disease control rating (Phytophthora infestans; [4]) [%] | Test A disease control rating (Pythium aphanidermatum; [4]) [%] | Test G disease control rating (Rhizoctonia oryzae; [4]) [%] | Test L disease control rating [1, 4] [%] | Test B disease control rating [2, 4] [%] | Test I disease control rating (fusarium graminearium) [%] | Test H disease control rating (Septoria nodorum; [4]) [%] | Test K disease control rating [3, 4] [%] | further results
Cc1ccc(-c2nc(Cl)c(-c3c(F)cccc3F)n(CC(C)C)c2=O)nc1 [Compound 209, 5-Chloro-6-(2,6-difluorophenyl)-1-(2-methylpropyl)-3-(5-methyl-2-pyridinyl)-2(1H)-pyrazinone] |  |  |  |  |  |  |  |  |  |  |  |  |  |  |  |  |  |  |  |  | pest or weed control at 200 ppm (Sclerotinia sclerotiorum; Sclerotinia sclerotiorum, in Cucumis sativus, 168 h, read-out: Test C disease control rating, 200 ppm): 0%; pest or weed control at 200 ppm (Plasmopara viticola; Plasmopara viticola, 168 h, read-out: Test D disease control rating): 8%; pest or weed control at 200 ppm (Botrytis cinerea; Botrytis cinerea, in Solanum lycopersicum, topical, 72 h, read-out: Test E disease control rating): 99%; pest or weed control at 200 ppm (Phytophthora infestans; Phytophthora infestans, in Solanum lycopersicum, topical, 144 h, read-out: Test F disease control rating): 0%; pest or weed control at 200 ppm (Pythium aphanidermatum; Pythium aphanidermatum, 120 h, read-out: Test A disease control rating): 56%; pest or weed control at 200 ppm (Rhizoctonia oryzae; Waitea circinata, in Agrostis stolonifera, topical, 144 h, read-out: Test G disease control rating, 200 ppm): 34%; pest or weed control at 200 ppm ([1]; Blumeria graminis, in Triticum aestivum, 168 h, read-out: Test L disease control rating, 200 ppm): 0%; pest or weed control at 200 ppm (Septoria tritici; Zymoseptoria tritici, 528 h, 200 ppm, read-out: Test J disease control rating): 96%; pest or weed control at 200 ppm ([2]; Colletotrichum orbiculare, in Cucumis sativus, 144 h, read-out: Test B disease control rating, 200 ppm): 54%; pest or weed control at 200 ppm (Septoria nodorum; Parastagonospora nodorum, in Triticum aestivum, topical, 168 h, read-out: Test H disease control rating, 200 ppm): 0%; pest or weed control at 200 ppm ([3]; Puccinia recondita, in Triticum aestivum, 192 h, read-out: Test K disease control rating): 85%
CCC(C)n1c(-c2c(F)cccc2F)c(Cl)nc(-n2cncn2)c1=O (stereo not drawn) [compound 32] | 95 | 15 | 100 | 0 | 0 | 92 | 0 | 32 | 0 | 100 |  |  |  |  |  |  |  |  |  |  | Test K disease control rating [3]: 100%
CC(C)n1c(-c2c(F)cccc2F)c(Cl)nc(-n2cncn2)c1=O [compound 33] | 16 | 34 | 100 | 0 | 0 | 100 | 0 | 100 | 0 | 100 |  |  |  |  |  |  |  |  |  |  | Test K disease control rating [3]: 100%
CCCn1c(-c2c(F)cccc2F)c(Cl)nc(-n2cncn2)c1=O [compound 34] | 16 | 10 | 100 | 26 | 0 | 100 | 89 | 97 | 0 | 100 |  |  |  |  |  |  |  |  |  |  | Test K disease control rating [3]: 99%
CC(C)CCn1c(-c2c(F)cccc2F)c(Cl)nc(-n2cccn2)c1=O [compound 35] | 0 | 5 | 100 | 0 | 0 | 90 | 97 | 100 | 0 | 100 |  |  |  |  |  |  |  |  |  |  | Test K disease control rating [3]: 88%
C=CCn1c(-c2c(F)cccc2F)c(Cl)nc(-n2cccn2)c1=O [compound 58] | 0 | 47 | 100 | 0 | 0 | 92 | 99 | 98 | 99 | 100 |  |  |  |  |  |  |  |  |  |  | Test K disease control rating [3]: 100%
CC(=O)Nc1nc(Cl)c(-c2c(F)cccc2F)n(CC(C)C)c1=O [compound 423] |  |  |  |  |  |  |  |  |  |  | 0 | 100 | 0 | 0 | 95 | 97 | 0 | 60 | 0 | 97 | Test J disease control rating (Septoria tritici; 40 ppm (marked *), 100 = 100% disease control, 0 = no control): 46* %
Cc1nc(C#N)c(=N)n(CC(C)C)c1-c1ccc(F)cc1F [compound 425] |  |  |  |  |  |  |  |  |  |  | 0 | 0 | 16 | 0 | 0 | 0 | 0 | 0 | 0 | 0 | Test J disease control rating (Septoria tritici; [5]): 3%
Cc1nc(C(N)=O)c(=N)n(CC(C)C)c1-c1ccc(F)cc1F [compound 427] |  |  |  |  |  |  |  |  |  |  | 0 | 0 | 0 | 0 | 0 | 0 | 0 | 0 | 0 | 0 | Test J disease control rating (Septoria tritici; [5]): 0%
CCC(C)Cn1c(-c2ccc(F)cc2F)c(C)nc(C(N)=O)c1=N (stereo not drawn) [compound 428] |  |  |  |  |  |  |  |  |  |  | 0 | 49 | 0 | 0 | 0 | 0 | 0 | 0 | 0 | 95 | Test J disease control rating (Septoria tritici; [5]): 87%
CC(C)Cn1c(-c2ccc(F)cc2F)c(F)nc(C(N)=O)c1=N [compound 429] |  |  |  |  |  |  |  |  |  |  | 0 | 0 | 0 | 88 | 0 | 0 | 0 | 62 | 0 | 0 | Test J disease control rating (Septoria tritici; [5]): 0%
CC(=O)N=c1c(C#N)nc(C)c(-c2ccccc2)n1CC(C)C [compound 431] |  |  |  |  |  |  |  |  |  |  | 46 | 37 | 0 | 88 | 16 | 0 | 0 | 28 | 0 | 32 | Test J disease control rating (Septoria tritici; [5]): 0%
